These results are taken from the Deep4Chem optical property database.

This data set in a line: solvent given as SMILES.

For the molecule `CCN(CC)c1ccc2cc(/C(Cl)=C/C=C/C(=C(C#N)C#N)c3ccc4c(c3)c3ccccc3n4CC)c(=O)oc2c1`, the absorption maximum runs as follows: (in CC(C)=O) 518 nm; (in CCOC(C)=O) 508 nm; (in CN(C)C=O) 532 nm; (in CS(C)=O) 538 nm; (in Cc1ccccc1) 508 nm; (in ClCCl) 526 nm.
In the case of `CC(C)(C)c1ccc2c(c1)c1cc(C(C)(C)C)ccc1n2-c1ccc(-c2nc(-c3ccc(-n4c5ccc(C(C)(C)C)cc5c5cc(C(C)(C)C)ccc54)cc3)nc(-c3ccc(P(=O)(c4ccccc4)c4ccccc4)cc3)n2)cc1`, the absorption maximum by setting is: (in C1CCOC1) 386.93 nm; (in CC#N) 380.02 nm; (in CC(C)=O) 380.02 nm; (in CN(C)C=O) 384.45 nm; (in Cc1ccccc1) 393.2 nm; (in ClC(Cl)Cl) 430.07 nm. Moreover, the absorption maximum (in ClCCl) is given as 382.72 nm.
As to `CN(C)c1ccc(/C=C/C=C2\CC/C(=C\C=C\c3ccc(N(C)C)cc3)C2=O)cc1`, the absorption maximum by setting is: (in C1CCCCC1) 480 nm; (in CC#N) 490 nm; (in CC(C)=O) 493 nm; (in CC(C)O) 515 nm; (in CCCCCC) 478 nm; (in CCCCO) 524 nm. In addition, the absorption maximum turned out to be 515 nm (in CCCO); 510 nm (in CCO); 480 nm (in CCOC(C)=O); 475 nm (in CCOCC); 507 nm (in CN(C)C=O); 523 nm (in CO). Besides, the absorption maximum turned out to be 512 nm (in CS(C)=O); 495 nm (in Cc1ccccc1); 465 nm (in ClC(Cl)(Cl)Cl); 503 nm (in ClCCl); 534 nm (in OCC(F)(F)F); 480 nm (in S=C=S). Also, the absorption maximum runs as follows: (in c1ccccc1) 475 nm; (in c1ccncc1) 507 nm.
As for `F[B-]1(F)n2c(cc(-c3ccccc3)c2-c2ccccc2)C(c2ccccc2)=C2C=C(c3ccccc3)C(c3ccccc3)=[N+]21`, the absorption maximum by setting is: (in C1CCOC1) 586 nm; (in CC#N) 576 nm; (in Cc1ccccc1) 592 nm; (in ClCCl) 584 nm.
For the setting “in ClCCl”, `CCCCC(CC)COc1ccc2nc(-c3ccc(-c4cccs4)s3)sc2c1` (stereo unspecified) yielded an absorption maximum of 382 nm.
`CCC1=C(C)c2cc3c(OC)cc(OC)cc3c(=O)n2C1=O`: the absorption maximum by setting is: (in CC#N) 433 nm; (in CO) 433 nm; (in CS(C)=O) 434 nm; (in ClC(Cl)Cl) 434 nm.
The molecule `CCCCCc1c(Oc2cc(O)cc(CCC(=O)CC)c2C(=O)OC)c(OC)cc(O)c1C(=O)O` had an absorption maximum (in ClC(Cl)Cl) of 312 nm.
In the case of `C[Si](C)(C)C#Cc1cc(C#C[Si](C)(C)C)c2ccc3c(C(=O)c4ccccc4)cc(C#C[Si](C)(C)C)c4ccc1c2c43`, the absorption maximum (in ClCCl) turned out to be 426 nm.
On the same count and under the same terms, with `CN(C)c1ccc(C#Cc2cc(C#Cc3ccc(C(F)(F)F)cc3)c3ccc4c(C#Cc5ccc(N(C)C)cc5)cc(C#Cc5ccc(C(F)(F)F)cc5)c5ccc2c3c45)cc1` the figure was 509 nm.
On to `CN(C)c1ccc(/C=C/C(=O)O)cc1`, for which the absorption maximum (in C1CCCCC1) came to 358 nm; the absorption maximum (in C1CCOC1) is 358 nm; the absorption maximum (in C1COCCO1) was 356 nm; the absorption maximum (in CC#N) is on record as 364 nm; the absorption maximum (in CCCCO) turned out to be 356 nm; the absorption maximum (in CCCO) is reported as 355 nm. Further, the absorption maximum is, setting by setting: (in CCOC(C)=O) 358 nm; (in CO) 357 nm; (in Cc1ccccc1) 362 nm; (in O) 323 nm; (in c1ccccc1) 365 nm.
Take `CC[N+]1(CC)CN2C(C)=CC(C)=C(C(=O)O)C2=N1`: the absorption maximum came to 346 nm (in CN(C)C=O) and 343 nm (in O).
`COCCOCCOCCOCC(COCCOCCOCCOC)Oc1cc(/C=C/c2ccc(/C=C(\C#N)c3ccccn3)cc2)c(OC(COCCOCCOCCOC)COCCOCCOCCOC)cc1/C=C/c1ccc(/C=C(\C#N)c2ccccn2)cc1`: the absorption maximum (in ClCCl) was found to be 443 nm.
In turn, `CCN(CC)c1ccc2cc(C#N)c(=O)oc2c1` yielded an absorption maximum (in ClCCl) of 428 nm.
Consider `O=Cc1ccc(C2=C3C=c4c(oc5ccccc45)=[N+]3[B-](F)(F)n3c2cc2c4ccccc4oc23)cc1`, for which the absorption maximum by setting is: (in C1CCCCC1) 592.5 nm; (in C1CCOC1) 589 nm; (in CC#N) 585.5 nm; (in CCOC(C)=O) 587 nm; (in CN(C)C=O) 589 nm; (in CO) 583 nm. Moreover, the absorption maximum is, setting by setting: (in Cc1ccccc1) 597 nm; (in ClCCl) 593.5 nm.
In the case of `CCCN1C(=O)c2c3c(c4c(c2C1=O)CCc1cc(-c2ccc(N(C)C)cc2)c(OC)cc1-4)-c1cc(OC)c(-c2ccc(N(C)C)cc2)cc1CC3`, the absorption maximum (in C1CCCCC1) was 404 nm, the absorption maximum (in C1CCOC1) was 409 nm, the absorption maximum (in CCOC(C)=O) is reported as 407 nm and the absorption maximum (in Cc1ccccc1) is on record as 412 nm.
On to `CC1(C)CC(/N=C/c2ccc3ccc4cccc5ccc2c3c45)CC(C)(C)N1`, for which the absorption maximum runs as follows: (in C1CCCCC1) 360 nm; (in CC#N) 358 nm; (in CO) 359 nm; (in ClC(Cl)Cl) 361 nm.
In the case of `c1ccc(-n2c3ccccc3c3cc(-n4ccc5cc(-c6ccc(C7(c8ccccc8)c8ccccc8-c8ccccc87)cc6)ccc54)ccc32)cc1`, the absorption maximum (in ClCCl) was 308 nm.
Regarding `CCOC(=O)c1cc(C(=O)OCC)c2c(C)ccc(OC(=O)OC(C)(C)C)c2n1`, where the note is “in CCO”, the absorption maximum turned out to be 312 nm.
`Cc1ccc(N2C(c3ccccc3N(C)C)=NC(c3ccccc3)C2c2ccccc2)cc1` (stereo unspecified) gave an absorption maximum (in Cc1ccccc1) of 275 nm.
On to `C=Cc1ccc(OC)cc1`, for which the absorption maximum (in C1CCCCC1) is reported as 302 nm.
Take `O=c1cccc2n1CN1C=C(Br)C=CC1=N2`: the absorption maximum (in CO) is listed as 436 nm.
Under “in ClC(Cl)Cl”, `COc1c(C)c2c(c(C)c1Cl)Oc1c(C=O)c(O)c(Cl)c(C)c1C(=O)O2` showed an absorption maximum of 342 nm.
In turn, `c1ccc(-c2nc(-c3ccccc3)nc(-c3ccc(-c4ccc(N5c6ccccc6[Si](c6ccccc6)(c6ccccc6)c6ccccc65)cc4)cc3)n2)cc1` had an absorption maximum (in Cc1ccccc1) of 308 nm.
`CC(C)(C)c1ccc(C2=C(c3ccc(N(c4ccccc4)c4ccccc4)cc3)S(=O)(=O)c3c2sc(-c2ccc(N(c4ccccc4)c4ccccc4)cc2)c3-c2ccc(C(C)(C)C)cc2)cc1` showed an absorption maximum (in C1CCOC1) of 463 nm.
As to `CCOC(=O)CCCCCn1c2ccccc2c(=O)c2cc(N)ccc21`, the absorption maximum (in O) is 405 nm.
For the setting “in CC#N”, `c1ccc(-c2pc3ccccc3s2)cc1` (stereo unspecified) displayed an absorption maximum of 330 nm.
Molecule `Cc1cc2oc3ccccc3c2c2[nH]c3ccccc3c12` registered an absorption maximum (in ClCCl) of 337 nm.
With `CCOc1cc2c(cc1/C=C/C(=C(C#N)C#N)c1ccccc1)c1ccccc1n2CC`, the absorption maximum turned out to be 462 nm (in C1CCOC1); 462 nm (in CC#N); 468 nm (in CCO); 458 nm (in CCOC(C)=O); 471 nm (in CN(C)C=O); 476 nm (in CS(C)=O). The absorption maximum by setting is: (in Cc1ccccc1) 462 nm; (in ClC(Cl)Cl) 470 nm; (in ClCCl) 468 nm.
